Experimental data reported in patent EP0610032A1, “Acetanilide derivatives” (ZENECA LIMITED, priority 1993, dated 1994).

Columns and labels:
5-LO [1] = target: T1, 5-LO (Homo sapiens, UniProt P09917); assay: Test a): in vitro heparinised human blood challenged with calcium ionophore A23187, radioimmunoassay of LTB₄; assay type: cell-based; conditions: A23187 challenge, read-out: IC₅₀ (LTB₄)
T1 construct: incubating a test compound with heparinised human blood, prior to challenge with the calcium ionophore A23187; endogenous in cells; host or cells: heparinised human whole blood (blood cells)
T1 sequence (P09917 1-674): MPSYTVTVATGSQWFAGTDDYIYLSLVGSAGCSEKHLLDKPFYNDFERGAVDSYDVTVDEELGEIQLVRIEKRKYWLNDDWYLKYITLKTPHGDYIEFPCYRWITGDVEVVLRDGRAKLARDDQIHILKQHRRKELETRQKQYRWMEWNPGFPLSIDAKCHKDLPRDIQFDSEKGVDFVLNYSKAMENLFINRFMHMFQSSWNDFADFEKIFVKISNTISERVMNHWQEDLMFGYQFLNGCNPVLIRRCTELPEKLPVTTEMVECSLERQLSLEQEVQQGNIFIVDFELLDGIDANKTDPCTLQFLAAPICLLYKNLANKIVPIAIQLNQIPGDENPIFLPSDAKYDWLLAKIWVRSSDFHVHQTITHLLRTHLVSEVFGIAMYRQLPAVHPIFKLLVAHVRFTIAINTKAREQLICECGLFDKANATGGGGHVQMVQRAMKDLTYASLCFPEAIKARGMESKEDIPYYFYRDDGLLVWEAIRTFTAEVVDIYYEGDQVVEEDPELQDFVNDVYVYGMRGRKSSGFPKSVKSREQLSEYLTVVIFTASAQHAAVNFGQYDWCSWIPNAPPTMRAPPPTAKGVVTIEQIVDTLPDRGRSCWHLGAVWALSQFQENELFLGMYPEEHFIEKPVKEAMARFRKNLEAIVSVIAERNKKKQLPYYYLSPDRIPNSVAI
Text: As stated previously, the compounds of the formula I are inhibitors of the enzyme 5-LO. […] J. Pharmacol., 1985, 84, 34P) which involves the use of a protein-LTB₄ conjugate produced using the procedure of Young et alia (Prostaglandins, 1983, 26(4), 605-613). The effects of a test compound on the enzyme cyclooxygenase (which is involved in the alternative metabolic pathway for arachidonic acid and gives rise to prostaglandins, thromboxanes and related metabolites) may be measured at the same time using the specific radioimmunoassay for thromboxane B₂(TxB₂) described by Carey and Forder (see above). This test provides an indication of the effects of a test compound against 5-LO and also cyclooxygenase in the presence of blood cells and proteins. It permits the selectivity of the inhibitory effect on 5-LO or cyclooxygenase to be assessed. • b) An ex vivo assay system, which is a variation of test a) above, involving administration to a group of rats of a test compound (usually orally as the suspension produced when a solution of the test compound in dimethylsulphoxide is added to carboxymethylcellulose), blood collection, heparinisation, challenge with A23187 and radioimmunoassay of LTB₄ and TxB₂. […]

5-LO [2] = target: T2, 5-LO (Rattus norvegicus, UniProt P12527); assay: Test c): in vivo zymosan-induced LTB₄ liberation in subcutaneous air pouch of male rats; conditions: oral, 3 hours, read-out: oral ED₅₀(LTB₄)
T2 construct: liberation of LTB₄ induced by zymosan within an air pouch generated within the subcutaneous tissue of the back of male rats; from tissue; host or cells: subcutaneous air pouch of male rats (in vivo)
T2 sequence (P12527 1-673): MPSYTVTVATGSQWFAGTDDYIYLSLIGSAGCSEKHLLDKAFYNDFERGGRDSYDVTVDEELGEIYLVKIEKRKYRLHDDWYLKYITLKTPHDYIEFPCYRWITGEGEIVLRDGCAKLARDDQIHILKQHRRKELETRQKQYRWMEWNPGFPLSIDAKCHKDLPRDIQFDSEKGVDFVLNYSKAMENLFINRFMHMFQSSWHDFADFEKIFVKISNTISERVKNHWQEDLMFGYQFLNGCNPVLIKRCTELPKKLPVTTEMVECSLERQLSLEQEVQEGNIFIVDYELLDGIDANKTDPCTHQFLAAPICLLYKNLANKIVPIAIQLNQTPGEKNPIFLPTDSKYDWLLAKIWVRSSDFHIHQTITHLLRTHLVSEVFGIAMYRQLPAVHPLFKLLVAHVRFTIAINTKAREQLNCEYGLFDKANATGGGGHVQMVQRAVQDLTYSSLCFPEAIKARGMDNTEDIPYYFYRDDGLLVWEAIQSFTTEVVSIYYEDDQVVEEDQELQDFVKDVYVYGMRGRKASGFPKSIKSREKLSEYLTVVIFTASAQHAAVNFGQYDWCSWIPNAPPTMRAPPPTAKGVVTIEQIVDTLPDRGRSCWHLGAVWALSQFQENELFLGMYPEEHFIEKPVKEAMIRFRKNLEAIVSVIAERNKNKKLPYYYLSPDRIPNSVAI
Procedure: This test provides an indication of the bioavailability of a test compound as an inhibitor of 5-LO or cyclooxygenase. • c) An in vivo system involving measuring the effects of a test compound administered orally against the liberation of LTB₄ induced by zymosan within an air pouch generated within the subcutaneous tissue of the back of male rats. The rats are anaesthetised and air pouches are formed by the injection of sterile air (20ml). A further injection of air (10ml) is similarly given after 3 days. At 6 days after the initial air injection the test compound is administered (usually orally as the suspension produced when a solution of the test compound in dimethylsulphoxide is added to hydroxypropylmethylcellulose), followed by the intrapouch injection of zymosan (1ml of a 1% suspension in physiological saline). After 3 hours the rats are killed, the air pouches are lavaged with physiological saline, and the specific radioimmunoassay described above is used to assay LTB₄ in the washings. This test provides an indication of inhibitory effects against 5-LO in an inflammatory milieu.

SMILES | IC50 (5-LO [1]) | ED50 (5-LO [2])
CC(=O)N(C)c1ccc(Sc2cc([C@@]3(C)COC(C)(C)O3)cs2)cc1 [Example 1, N-methyl-4'-{4-[(4S)-2,2,4-trimethyl-1,3-dioxolan-4-yl]thien-2-ylthio}acetanilide] | < 40 nM | ~1.5 mg/kg
CC(=O)N(C)c1ccc(Sc2ncc([C@@]3(C)COC(C)(C)O3)s2)cc1 [Example 2, N-methyl-4'-{5-[(4R)-2,2,4-trimethyl-1,3-dioxolan-4-yl]thiazol-2-ylthio}acetanilide] | 70 nM | 
